Test results reported in patent publication US10023590B2, “Substituted pyridine compounds having herbicidal activity” (BASF SE, priority 2014, dated 2018).

Experiments:
Type in all cases: in vivo
Amaranthus retroflexus = assay: Greenhouse post-emergence herbicidal activity, AMARE; details: AMARE; for pest or weed control at 2000 g/ha: 2 kg/ha, scale 0 to 100, read-out: Herbicidal activity
From the text: (§1) The culture containers used were plastic flowerpots containing loamy sand with approximately 3.0% of humus as the substrate. The seeds of the test plants were sown separately for each species.
(§2) For the post-emergence treatment, the test plants were first grown to a height of 3 to 15 cm, depending on the plant habit, and only then treated with the active ingredients which had been suspended or emulsified in water. For this purpose, the test plants were either sown directly and grown in the same containers, or they were first grown separately as seedlings and transplanted into the test containers a few days prior to treatment.
(§3) Depending on the species, the plants were kept at 10-25° C. or 20-35° C., respectively.
(§4) The test period extended over 2 to 4 weeks. During this time, the plants were tended, and their response to the individual treatments was evaluated.
(§5) Evaluation was carried out using a scale from 0 to 100. 100 means no emergence of the plants, or complete destruction of at least the aerial moieties, and 0 means no damage, or normal course of growth. A good herbicidal activity is given at values of at least 70 and a very good herbicidal activity is given at values of at least 85.

Zea mays = assay: Greenhouse post-emergence herbicidal activity on crop ZEAMX (corn, maize); design: key: 0 = no damage/normal growth, 100 = no emergence or complete destruction
From the text: as §1, §2, §3, §4, §5

Chenopodium album = assay: Greenhouse post-emergence herbicidal activity, CHEAL
From the text: as §1, §2, §3, §4, §5

Stellaria media = assay: Greenhouse post-emergence herbicidal activity, STEME
From the text: as §1, §2, §3, §4, §5

Echinocloa crus-galli = assay: Greenhouse post-emergence herbicidal activity, ECHCG; details: Echinochloa crus-galli, ECHCG
From the text: as §1, §2, §3, §4, §5

Oryza sativa = assay: Greenhouse post-emergence herbicidal activity on crop ORYSA (rice)
From the text: as §1, §2, §3, §4, §5

Setaria viridis = assay: Greenhouse post-emergence herbicidal activity, SETVI
From the text: as §1, §2, §3, §4, §5

Abutilon theophrasti = assay: Greenhouse post-emergence herbicidal activity, ABUTH; details: ABUTH; for pest or weed control at 2000 g/ha: 2 kg/ha, scale 0 to 100, read-out: Herbicidal activity
From the text: as §1, §2, §3, §4, §5

Cirsium arvense = assay: Greenhouse post-emergence herbicidal activity, CIRAR; details: CIRAR, 0.063 kg/ha, scale 0 to 100, read-out: Herbicidal activity
From the text: as §1, §2, §3, §4, §5

Capsella bursa-pastoris = assay: Greenhouse post-emergence herbicidal activity, CAPBP; details: 0.063 kg/ha, scale 0 to 100
From the text: as §1, §2, §3, §4, §5

Eriochloa villosa = assay: Greenhouse post-emergence herbicidal activity, ERBVI; details: 0.031 kg/ha, scale 0 to 100
From the text: as §1, §2, §3, §4, §5

Setaria faberi = assay: Greenhouse post-emergence herbicidal activity, SETFA; details: 0.25 kg/ha, scale 0 to 100
From the text: as §1, §2, §3, §4, §5

[1] = ZEAMX (corn, crop), 0.031 kg/ha, scale 0 to 100
[2] = ZEAMX (corn, crop), 0.063 kg/ha, scale 0 to 100
[3] = ZEAMX (corn, crop), 0.125 kg/ha, scale 0 to 100
[4] = ORYSA (rice, crop), 0.031 kg/ha, scale 0 to 100
[5] = ORYSA (rice, crop), 0.063 kg/ha, scale 0 to 100
[6] = ORYSA (rice, crop), 0.125 kg/ha, scale 0 to 100
[7] = crop ZEAMX (corn, maize), application rate 0.031 kg/ha

Compound	pest or weed control at 31 g/ha (Amaranthus retroflexus; 0.031 kg/ha, scale 0 to 100)	pest or weed control at 63 g/ha (Amaranthus retroflexus; 0.063 kg/ha, scale 0 to 100)	pest or weed control at 125 g/ha (Amaranthus retroflexus; 0.125 kg/ha, scale 0 to 100)	Herbicidal activity (Zea mays; [1])	Herbicidal activity (Zea mays; [2])	Herbicidal activity (Zea mays; [3])	pest or weed control at 31 g/ha (Chenopodium album; 0.031 kg/ha, scale 0 to 100)	pest or weed control at 63 g/ha (Chenopodium album; 0.063 kg/ha, scale 0 to 100)	pest or weed control at 125 g/ha (Chenopodium album; 0.125 kg/ha, scale 0 to 100)	pest or weed control at 31 g/ha (Echinocloa crus-galli; 0.031 kg/ha, scale 0 to 100)	pest or weed control at 63 g/ha (Echinocloa crus-galli; 0.063 kg/ha, scale 0 to 100)	pest or weed control at 125 g/ha (Echinocloa crus-galli; 0.125 kg/ha, scale 0 to 100)	Herbicidal activity (Oryza sativa; [4])	Herbicidal activity (Oryza sativa; [5])	Herbicidal activity (Oryza sativa; [6])	pest or weed control at 2000 g/ha (Amaranthus retroflexus)	Herbicidal activity (Setaria viridis; 2 kg/ha, scale 0 to 100)	further results
Cc1c(C2=C(O)c3ncccc3C(C)(C)S2(=O)=O)ccc(Cl)c1N(C)S(C)(=O)=O [I-29, N-[6-chloro-3-(8-hydroxy-5,5-dimethyl-6,6-dioxo-thiopyrano[4,3-b]pyridin-7-yl)-2-methyl-phenyl]-N-methyl-methanesulfonamide]	95%	95%	98%	0	5	15	98%	98%	98%	85%	90%	95%	0	25	35	–	–	pest or weed control at 250 g/ha (Amaranthus retroflexus; 0.25 kg/ha, scale 0 to 100): 98%; pest or weed control at 250 g/ha (Chenopodium album; 0.25 kg/ha, scale 0 to 100): 98%; Herbicidal activity (Stellaria media; 0.25 kg/ha, scale 0 to 100): 98
CN(c1c(Cl)ccc(C2=C(O)c3ncc(F)cc3C(C)(C)S2(=O)=O)c1Cl)S(C)(=O)=O [I-38, N-[2,6-dichloro-3-(3-fluoro-8-hydroxy-5,5-dimethyl-6,6-dioxo-thiopyrano[4,3-b]pyridin-7-yl)phenyl]-N-methyl-methanesulfonamide]	–	–	–	–	–	–	–	–	–	–	–	–	–	–	–	–	–	pest or weed control at 31 g/ha (Amaranthus retroflexus; application rate 0.031 kg/ha): 98%; pest or weed control at 63 g/ha (Amaranthus retroflexus; application rate 0.063 kg/ha): 98%; pest or weed control at 125 g/ha (Amaranthus retroflexus; application rate 0.125 kg/ha): 98%; Herbicidal activity (Zea mays; [7]): 0; Herbicidal activity (Zea mays; crop ZEAMX (corn, maize), application rate 0.063 kg/ha): 0; Herbicidal activity (Zea mays; crop ZEAMX (corn, maize), application rate 0.125 kg/ha): 15; Herbicidal activity (Setaria viridis; application rate 0.125 kg/ha): 100; pest or weed control at 31 g/ha (Chenopodium album; application rate 0.031 kg/ha): 98%; pest or weed control at 63 g/ha (Chenopodium album; application rate 0.063 kg/ha): 95%; pest or weed control at 125 g/ha (Chenopodium album; application rate 0.125 kg/ha): 98%; pest or weed control at 31 g/ha (Echinocloa crus-galli; application rate 0.031 kg/ha): 95%; pest or weed control at 63 g/ha (Echinocloa crus-galli; application rate 0.063 kg/ha): 95%; pest or weed control at 125 g/ha (Echinocloa crus-galli; application rate 0.125 kg/ha): 100%; Herbicidal activity (Oryza sativa; crop ORYSA (rice), application rate 0.031 kg/ha): 35
CCS(=O)(=O)N(C)c1c(Cl)ccc(C2=C(O)c3ncccc3C(C)(C)S2(=O)=O)c1Cl [I-19, N-[2,6-dichloro-3-(8-hydroxy-5,5-dimethyl-6,6-dioxo-thiopyrano[4,3-b]pyridin-7-yl)phenyl]-N-methyl-ethanesulfonamide]	98%	100%	100%	–	0	–	98%	–	100%	98%	–	100%	–	–	–	100%	100	pest or weed control at 2000 g/ha (Abutilon theophrasti): 98%; pest or weed control at 63 g/ha (Cirsium arvense): 100%; Herbicidal activity (Capsella bursa-pastoris): 100
CC(C)N(c1c(Cl)ccc(C2=C(O)c3ncccc3CS2(=O)=O)c1Cl)S(C)(=O)=O [I-10, N-[2,6-dichloro-3-(8-hydroxy-6,6-dioxo-5H-thiopyrano[4,3-b]pyridin-7-yl)phenyl]-N-isopropyl-methanesulfonamide]	–	–	70%	–	–	10	85%	85%	90%	–	–	–	10	10	15	100%	98	pest or weed control at 2000 g/ha (Abutilon theophrasti): 98%
CN(c1c(Cl)ccc(C2=C(O)c3ncccc3C(C)(C)S2(=O)=O)c1Cl)S(=O)(=O)C1CC1 [I-28, N-[2,6-dichloro-3-(8-hydroxy-5,5-dimethyl-6,6-dioxo-thiopyrano[4,3-b]pyridin-7-yl)phenyl]-N-methyl-cyclopropanesulfonamide]	98%	98%	98%	20	30	–	98%	98%	98%	–	98%	100%	–	–	–	–	–	pest or weed control at 250 g/ha (Amaranthus retroflexus; 0.25 kg/ha, scale 0 to 100): 98%; Herbicidal activity (Eriochloa villosa): 95; pest or weed control at 250 g/ha (Echinocloa crus-galli; 0.25 kg/ha, scale 0 to 100): 100%; Herbicidal activity (Setaria faberi): 100
CN(c1c(Cl)ccc(C2=C(O)c3ncccc3CS2(=O)=O)c1C(F)(F)F)S(C)(=O)=O [I-31, N-[6-chloro-3-(8-hydroxy-6,6-dioxo-5H-thiopyrano[4,3-b]pyridin-7-yl)-2-(trifluoromethyl)phenyl]-N-methyl-methanesulfonamide]	–	–	–	–	–	–	–	–	–	–	–	–	–	–	–	–	–	pest or weed control at 125 g/ha (Amaranthus retroflexus; application rate 0.125 kg/ha): 98%; pest or weed control at 250 g/ha (Amaranthus retroflexus; application rate 0.25 kg/ha): 98%; Herbicidal activity (Zea mays; [7]): 5; pest or weed control at 63 g/ha (Chenopodium album; application rate 0.063 kg/ha): 98%; pest or weed control at 125 g/ha (Chenopodium album; application rate 0.125 kg/ha): 98%; pest or weed control at 250 g/ha (Chenopodium album; application rate 0.25 kg/ha): 98%; Herbicidal activity (Stellaria media; application rate 0.031 kg/ha): 80; Herbicidal activity (Stellaria media; application rate 0.063 kg/ha): 100; pest or weed control at 31 g/ha (Abutilon theophrasti; application rate 0.031 kg/ha): 70%; pest or weed control at 63 g/ha (Abutilon theophrasti; application rate 0.063 kg/ha): 90%; pest or weed control at 125 g/ha (Echinocloa crus-galli; application rate 0.125 kg/ha): 98%; pest or weed control at 250 g/ha (Echinocloa crus-galli; application rate 0.25 kg/ha): 98%
CN(C)S(=O)(=O)Oc1c(Cl)ccc(C2=C(O)c3ncccc3CS2(=O)=O)c1Cl [I-22]	–	70%	75%	0	0	15	–	95%	100%	80%	90%	95%	30	35	40	100%	98	pest or weed control at 2000 g/ha (Echinocloa crus-galli; 2 kg/ha, scale 0 to 100, read-out: Herbicidal activity): 100%
